{
  "source": "patent US6353019B1",
  "about": "“Macrocyclic lactones, compositions, and methods of use” (United States of America as represented by the Department …, priority 1997, dated 2002)",
  "key": {"HCT-15": {"test_system": "HCT-15", "experiment": "NCI 60 cell-line screen, HCT-15 (Colon)", "format": "cell-based, human", "details": "averaged, quadruplicate testing, 48 h, SRB", "procedure": "(§1) The NCI screen consists of a panel of 60 different human tumor cell lines against which compounds are tested over a defined range of concentrations to determine the relative degree of growth inhibition or cytotoxicity against each cell line. The design and operation of the screen is such that for each compound tested, both the absolute and relative sensitivities of individual cell lines comprising the screen are sufficiently reproducible that a characteristic profile or “fingerprint” of cellular response is generated. Compounds which are active in the NCI screen show pronounced differential tumor growth-inhibitory and/or cytotoxic effects to the diverse cell lines comprising the 60 cell-line panel. The degree of differential response between the most and least sensitive lines typically may be relatively small (e.g., 2- to 10-fold), or occasionally as great as 3-4 orders of magnitude. […]\n(§2) In the screening assay, each agent is tested over a broad concentration range against every cell line in the panel. […] Test compounds are evaluated at five 10-fold dilutions. […] Optical densities are measured on automated plate readers, followed by computerized data acquisition, processing, storage, and availability for display and analysis. […]"}, "SN-12C": {"test_system": "SN-12C", "experiment": "NCI 60 cell-line screen, SN-12C (Kidney)", "format": "cell-based, human", "details": "averaged, quadruplicate testing, 48 h, SRB", "procedure": "as §1, §2"}, "MCF-7": {"test_system": "MCF-7", "experiment": "NCI 60 cell-line screen, MCF-7 (Breast)", "format": "cell-based, human", "details": "averaged, quadruplicate testing, 48 h, SRB", "procedure": "as §1, §2"}, "A498": {"test_system": "A498", "experiment": "NCI 60 cell-line screen, A498 (Kidney)", "format": "cell-based, human", "details": "averaged, quadruplicate testing, 48 h, SRB", "procedure": "as §1, §2"}, "HL-60-TB": {"test_system": "HL-60-TB", "experiment": "NCI 60 cell-line screen, HL-60-TB (Leukemia)", "format": "cell-based, human", "details": "averaged, quadruplicate testing, 48 h, SRB", "procedure": "as §1, §2"}, "MDA-MB-435": {"test_system": "MDA-MB-435", "experiment": "NCI 60 cell-line screen, MDA-MB-435 (Breast)", "format": "cell-based, human", "details": "averaged, quadruplicate testing, 48 h, SRB", "procedure": "as §1, §2"}, "RXF-393": {"test_system": "RXF-393", "experiment": "NCI 60 cell-line screen, RXF-393 (Kidney)", "format": "cell-based, human", "details": "averaged, quadruplicate testing, 48 h, SRB", "procedure": "as §1, §2"}, "MDA-N": {"test_system": "MDA-N", "experiment": "NCI 60 cell-line screen, MDA-N (Breast)", "format": "cell-based, human", "details": "averaged, quadruplicate testing, 48 h, SRB", "procedure": "as §1, §2"}, "T-47D": {"test_system": "T-47D", "experiment": "NCI 60 cell-line screen, T-47D (Breast)", "format": "cell-based, human", "details": "averaged, quadruplicate testing, 48 h, SRB", "procedure": "as §1, §2"}, "DU-145": {"test_system": "DU-145", "experiment": "NCI 60 cell-line screen, DU-145 (Prostate)", "format": "cell-based, human", "details": "averaged, quadruplicate testing, 48 h, SRB", "procedure": "as §1, §2"}, "SNB-75": {"test_system": "SNB-75", "experiment": "NCI 60 cell-line screen, SNB-75 (Brain)", "format": "cell-based, human", "details": "averaged, quadruplicate testing, 48 h, SRB", "procedure": "as §1, §2"}, "HCT-116": {"test_system": "HCT-116", "experiment": "NCI 60 cell-line screen, HCT-116 (Colon)", "format": "cell-based, human", "details": "averaged, quadruplicate testing, 48 h, SRB", "procedure": "as §1, §2"}, "NCI-H23": {"test_system": "NCI-H23", "experiment": "NCI 60 cell-line screen, NCI-H23 (Lung)", "format": "cell-based, human", "details": "averaged, quadruplicate testing, 48 h, SRB", "procedure": "as §1, §2"}, "OVCAR-4": {"test_system": "OVCAR-4", "experiment": "NCI 60 cell-line screen, OVCAR-4 (Ovary)", "format": "cell-based, human", "details": "averaged, quadruplicate testing, 48 h, SRB", "procedure": "as §1, §2"}, "CAKI-1": {"test_system": "CAKI-1", "experiment": "NCI 60 cell-line screen, CAKI-1 (Kidney)", "format": "cell-based, human", "details": "averaged, quadruplicate testing, 48 h, SRB", "procedure": "as §1, §2"}, "HOP-62": {"test_system": "HOP-62", "experiment": "NCI 60 cell-line screen, HOP-62 (Lung)", "format": "cell-based, human", "details": "averaged, quadruplicate testing, 48 h, SRB", "procedure": "as §1, §2"}, "OVCAR-8": {"test_system": "OVCAR-8", "experiment": "NCI 60 cell-line screen, OVCAR-8 (Ovary)", "format": "cell-based, human", "details": "averaged, quadruplicate testing, 48 h, SRB", "procedure": "as §1, §2"}, "SR": {"test_system": "SR", "experiment": "NCI 60 cell-line screen, SR (Leukemia)", "format": "cell-based, human", "details": "averaged, quadruplicate testing, 48 h, SRB", "procedure": "as §1, §2"}, "UACC-62": {"test_system": "UACC-62", "experiment": "NCI 60 cell-line screen, UACC-62 (Melanoma)", "format": "cell-based, human", "details": "averaged, quadruplicate testing, 48 h, SRB", "procedure": "as §1, §2"}, "SK-MEL-5": {"test_system": "SK-MEL-5", "experiment": "NCI 60 cell-line screen, SK-MEL-5 (Melanoma)", "format": "cell-based, human", "details": "averaged, quadruplicate testing, 48 h, SRB", "procedure": "as §1, §2"}, "OVCAR-5": {"test_system": "OVCAR-5", "experiment": "NCI 60 cell-line screen, OVCAR-5 (Ovary)", "format": "cell-based, human", "details": "averaged, quadruplicate testing, 48 h, SRB", "procedure": "as §1, §2"}, "MOLT-4": {"test_system": "MOLT-4", "experiment": "NCI 60 cell-line screen, MOLT-4 (Leukemia)", "format": "cell-based, human", "details": "averaged, quadruplicate testing, 48 h, SRB", "procedure": "as §1, §2"}, "MDA-MB-231/ATCC": {"test_system": "MDA-MB-231/ATCC", "experiment": "NCI 60 cell-line screen, MDA-MB-231/ATCC (Breast)", "format": "cell-based, human", "details": "averaged, quadruplicate testing, 48 h, SRB", "procedure": "as §1, §2"}, "UO-31": {"test_system": "UO-31", "experiment": "NCI 60 cell-line screen, UO-31 (Kidney)", "format": "cell-based, human", "details": "averaged, quadruplicate testing, 48 h, SRB", "procedure": "as §1, §2"}, "UACC-257": {"test_system": "UACC-257", "experiment": "NCI 60 cell-line screen, UACC-257 (Melanoma)", "format": "cell-based, human", "details": "averaged, quadruplicate testing, 48 h, SRB", "procedure": "as §1, §2"}, "SK-OV-3": {"test_system": "SK-OV-3", "experiment": "NCI 60 cell-line screen, SK-OV-3 (Ovary)", "format": "cell-based, human", "details": "averaged, quadruplicate testing, 48 h, SRB", "procedure": "as §1, §2"}, "NCI-H322M": {"test_system": "NCI-H322M", "experiment": "NCI 60 cell-line screen, NCI-H322M (Lung)", "format": "cell-based, human", "details": "averaged, quadruplicate testing, 48 h, SRB", "procedure": "as §1, §2"}, "MALME-3M": {"test_system": "MALME-3M", "experiment": "NCI 60 cell-line screen, MALME-3M (Melanoma)", "format": "cell-based, human", "details": "averaged, quadruplicate testing, 48 h, SRB", "procedure": "as §1, §2"}, "SK-MEL-28": {"test_system": "SK-MEL-28", "experiment": "NCI 60 cell-line screen, SK-MEL-28 (Melanoma)", "format": "cell-based, human", "details": "averaged, quadruplicate testing, 48 h, SRB", "procedure": "as §1, §2"}, "[1]": {"experiment": "Stability of compounds and extracts in solvents and media", "format": "physicochemical", "from_the_text": "Therefore, all subsequent attempts at isolation avoided the use of chloroform or exposure of samples to CDCl3, and no further problems with decomposition or loss of bioactivity were encountered. Moreover, there was no indication of any instability of the pure isolated compounds in any of the other common organic solvents employed, nor in aqueous or biological media. Therefore, a typical isolation and purification of the salicylihalamides from the selected crude extract is as follows."}, "TK-10": {"test_system": "TK-10", "experiment": "NCI 60 cell-line screen, TK-10 (Kidney)", "format": "cell-based, human", "details": "averaged, quadruplicate testing, 48 h, SRB", "procedure": "as §1, §2"}, "OVCAR-3": {"test_system": "OVCAR-3", "experiment": "NCI 60 cell-line screen, OVCAR-3 (Ovary)", "format": "cell-based, human", "details": "averaged, quadruplicate testing, 48 h, SRB", "procedure": "as §1, §2"}},
  "data": [
    {"substance": "salicylihalamide A", "values": [
      {"measurement": "negative log10 GI50", "setting": "HCT-15", "value": 8.44},
      {"measurement": "negative log10 GI50", "setting": "SN-12C", "value": 7.77},
      {"measurement": "negative log10 GI50", "setting": "MCF-7", "value": 7.12},
      {"measurement": "negative log10 GI50", "setting": "A498", "value": 6.55},
      {"measurement": "negative log10 GI50", "setting": "HL-60-TB", "value": 9.04},
      {"measurement": "negative log10 GI50", "setting": "MDA-MB-435", "value": 7.82},
      {"measurement": "negative log10 GI50", "setting": "RXF-393", "value": 9.07},
      {"measurement": "negative log10 GI50", "setting": "MDA-N", "value": 8.00},
      {"measurement": "negative log10 GI50", "setting": "T-47D", "value": 8.34},
      {"measurement": "negative log10 GI50", "setting": "DU-145", "value": 8.26},
      {"measurement": "negative log10 GI50", "setting": "SNB-75", "value": 6.21},
      {"measurement": "negative log10 GI50", "setting": "HCT-116", "value": 8.74},
      {"measurement": "negative log10 GI50", "setting": "NCI-H23", "value": 6.55},
      {"measurement": "negative log10 GI50", "setting": "OVCAR-4", "value": 5.30},
      {"measurement": "negative log10 GI50", "setting": "CAKI-1", "value": 8.96},
      {"measurement": "negative log10 GI50", "setting": "HOP-62", "value": 8.38},
      {"measurement": "negative log10 GI50", "setting": "OVCAR-8", "value": 8.43},
      {"measurement": "negative log10 GI50", "setting": "SR", "value": 8.44},
      {"measurement": "negative log10 GI50", "setting": "UACC-62", "value": 8.38},
      {"measurement": "negative log10 GI50", "setting": "SK-MEL-5", "value": 9.00},
      {"measurement": "negative log10 GI50", "setting": "OVCAR-5", "value": 8.11},
      {"measurement": "negative log10 GI50", "setting": "MOLT-4", "value": 7.96},
      {"measurement": "negative log10 GI50", "setting": "MDA-MB-231/ATCC", "value": 6.92},
      {"measurement": "negative log10 GI50", "setting": "UO-31", "value": 8.31},
      {"measurement": "negative log10 GI50", "setting": "UACC-257", "value": 8.47},
      {"measurement": "negative log10 GI50", "setting": "SK-OV-3", "value": 5.54},
      {"measurement": "negative log10 GI50", "setting": "NCI-H322M", "value": 6.72},
      {"measurement": "negative log10 GI50", "setting": "MALME-3M", "value": 7.62},
      {"measurement": "negative log10 GI50", "setting": "SK-MEL-28", "value": 7.00},
      {"measurement": "stability in deuterated chloroform (CDCl3)", "setting": "[1]", "value": "sensitivity"},
      {"measurement": "negative log10 GI50", "setting": "TK-10", "value": 5.74},
      {"measurement": "negative log10 GI50", "setting": "OVCAR-3", "value": 7.03}
    ]}
  ]
}
